Reference: article PMC3950682 (Nucleic Acids Research, 2013)

Biological target: Bmt5 (Saccharomyces cerevisiae, UniProt P40493)
Experiment: biochemical

Chain of Bmt5 (P40493 whole entry): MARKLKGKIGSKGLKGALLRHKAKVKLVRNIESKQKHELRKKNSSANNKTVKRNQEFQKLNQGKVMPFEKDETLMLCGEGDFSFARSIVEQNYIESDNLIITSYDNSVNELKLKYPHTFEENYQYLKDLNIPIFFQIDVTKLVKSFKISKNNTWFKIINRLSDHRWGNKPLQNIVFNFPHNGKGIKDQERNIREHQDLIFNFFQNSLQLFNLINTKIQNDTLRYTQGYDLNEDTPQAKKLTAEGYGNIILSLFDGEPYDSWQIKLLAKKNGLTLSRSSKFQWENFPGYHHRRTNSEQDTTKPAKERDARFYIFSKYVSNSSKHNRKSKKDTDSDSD

Kd: 109 ± 10.8 µM
Structure (SMILES): C[S+](CC[C@H](N)C(=O)O)C[C@H]1O[C@@H](n2cnc3c(N)ncnc32)[C@H](O)[C@@H]1O (stereo partly shown) [SAM]
